Experimental data taken from patent publication US5635458A, “Water-based drilling fluids for reduction of water adsorption and hydration of argillaceous rocks” (M-I Drilling Fluids, L.L.C., priority 1995, dated 1997).

Tests used:
[1] = Swelling test, Louisiana gumbo shale; conditions: gumbo shale pellets
Excerpt: The swelling inhibition effects of drilling fluids of this invention on water-sensitive shales have been evaluated by performing swelling tests using a Computer-Aided Swellmeter developed by M-I Drilling Fluids L.L.C. This device is described in, Lee, John, "Swellmeter Analysis," M-I® TECH-NEWS, November 1989. Pellets with 1 inch diameter, prepared by compressing pulverized water-sensitive shales under controlled loads, are placed in specially designed holders and allowed to be in direct contact with test fluids. The pellets are allowed to adsorb test fluids and swell for a period of time ranging from about 60 to 120 hours in the test fluids. Volume expansions of the pellets are recorded by using liner variable differential transformers. The volume expansions of the pellets and slopes of the swelling curves at the end of the test are used to evaluate the water adsorption and swelling inhibition of the test fluids.
The swelling tests were performed according to the test procedures given above. The argillaceous rock used for the tests was a "gumbo shale" obtained from offshore Louisiana. The gumbo shale was pulverized and pressed into 1 inch diameter pellets under 10,000 pounds of force for 5 minutes. The volume expansions of the pellets and the swelling rates calculated from swelling data obtained between 55 and 60 hours of the test are shown in Table 2. […]

[2] = cited from earlier work; for single-dose oral LD50: from Patty's Industrial Hygiene and Toxicology, 1978; for toxicity ranking / hazard in words: based on laboratory test data, direct ingestion
[3] = U.S. Pat. No. 4,830,765, cited from earlier work; for swelling of bentonite: 100% glycol fluid; for concentration needed to provide appreciable swelling inhibition on bentonite: in a fluid phase

Molecule	single-dose oral LD50 [2]	toxicity ranking / hazard in words [2]	concentration needed to provide appreciable swelling inhibition on bentonite [3] [% by weight]	further results
C[N+](C)(C)CCO.[Cl-] [Choline Chloride, choline chloride]				swelling inhibition in words [1]: more effective than the inorganic cationic material
OCCOCCO [Diethylene Glycol]	16-21 gm/KG			
OCCO [Ethylene Glycol]	6-12 gm/KG	most toxic		
CC(O)CO (stereo not drawn) [Propylene Glycol]	21-34 gm/KG	least toxic	≥ 50	swelling of bentonite [3]: completely prevented
OCCOCCOCCO [Triethylene Glycol]	16-22 gm/KG			
CC(O)COC(C)COC(C)CO (stereo not drawn) [Tripropylene Glycol]				swelling of bentonite [3]: completely prevented
OCC(O)CO [glycerin]			≥ 50	
OC[C@@H](O)[C@@H](O)[C@H](O)[C@@H](O)CO [sorbitol]			≥ 50	
Butylene Glycol	23-30 gm/KG	least toxic		
Dipropylene Glycol	~ 15 gm/KG			
